The results in this text go back to US8846659B2 (priority 2010, dated 2014).

Test [1] concerns recombinant NL-Rluc virus. Nature of the test: Inhibition of HIV replication: susceptibility of recombinant NL-Rluc virus to compounds. The test is classed as cell-based. The settings on record: Human immunodeficiency virus 1, read-out: Activity (EC50, 50% effective concentration).
In another test the target is HIV integrase (Human immunodeficiency virus type 1 group M subtype B, UniProt P12497). Nature of the test: HIV-integrase inhibition activity: inhibition of [3H]BMS-641493 binding to enzyme-SPA bead complexes. The settings on record: competition with [3H]BMS-641493, enzyme-SPA bead complexes; read-out: Activity (Ki toward integrase). The text has this:
HIV-Integrase Inhibition Activity.
Radiolabeled integrase inhibitor, BMS-641493 was used as a known reference ligand to determine the binding constants towards the integrase enzyme of the compounds described in this invention using a method similar to that described in; Dicker et al. J. Biological Chem. 2007, 282, 31186-31196; Dicker et al. J. Biol. Chem. 2008, 283, 23599-23609 and Dicker et al. Biochemistry 2008, 47, 13481-13488. BMS-641493 is a known active-site binding inhibitor as it can be competed […] for [3H]BMS-641493 were determined from fitting data to a saturation binding curve using Graphpad Prism, V4.01. The Ki measurement toward integrase was made by measuring the inhibition of binding of [3H]BMS-641493 to enzyme-SPA bead complexes in the presence of serial dilutions of the test compounds. The Ki value was determined from the [3H]BMS-641493 Kd and the inhibition binding curve using Graphpad Prism, V4.03.

Structures can show the parent of a compound that is named as a salt.

In the case of `NC12CCC(CC1)Cn1c2nc(-c2ncc(Cc3ccc(F)cc3)[nH]2)c(O)c1=O` [Example 1, 10-Amino-2-[4-[(4-fluorophenyl)methyl]-1H-imidazol-2-yl]-7,8,9,10-tetrahydro-3-hydroxy-7,10-ethanopyrimido[1,2-a]azepin-4(6H)-one], in test [1], the EC50 turned out to be 21 nM. For the compound `CN(C)C(=O)C(=O)NC12CCC(CC1)Cn1c2nc(-c2ncc(Cc3ccc(F)cc3)[nH]2)c(O)c1=O` [Example 2, N′-(2-(4-(4-Fluorobenzyl)-1H-imidazol-2-yl)-3-hydroxy-4-oxo-6,7,8,9-tetrahydro-7,10-ethanopyrimido[1,2-a]azepin-10(4H)-yl)-N,N-dimethylethanediamide], on HIV integrase, the Ki is 21 nM. The EC50 in test [1] was found to be 5 nM. In the case of `O=C(NC12CCC(CC1)Cn1c2nc(-c2ncc(Cc3ccc(F)cc3)[nH]2)c(O)c1=O)C(=O)N1CCCC1` [Example 3, N-(2-(4-(4-Fluorobenzyl)-1H-imidazol-2-yl)-3-hydroxy-4-oxo-6,7,8,9-tetrahydro-7,10-ethanopyrimido[1,2-a]azepin-10(4H)-yl)-2-oxo-2-(pyrrolidin-1-yl)acetamide], on HIV integrase, the Ki is 122 nM. Further, in test [1], the EC50 turned out to be 18 nM. For `Cc1cc(C(=O)NC23CCC(CC2)Cn2c3nc(-c3ncc(Cc4ccc(F)cc4)[nH]3)c(O)c2=O)no1` [Example 4, N-(2-(4-(4-Fluorobenzyl)-1H-imidazol-2-yl)-3-hydroxy-4-oxo-6,7,8,9-tetrahydro-7,10-ethanopyrimido[1,2-a]azepin-10(4H)-yl)-5-methyl-1,2-oxazole-3-carboxamide], in that order: 21 nM and 8 nM.

In the case of `NC12CCC(CC1)Cn1c2nc(-c2ncc(Cc3ccc(F)cc3)s2)c(O)c1=O` [Example 5], on HIV integrase, the Ki was 3880 nM. The EC50 in test [1] worked out at 60 nM. For `CN(C)C(=O)C(=O)NC12CCC(CC1)Cn1c2nc(-c2ncc(Cc3ccc(F)cc3)s2)c(O)c1=O` [Example 6, N′-(2-(5-(4-Fluorobenzyl)-1,3-thiazol-2-yl)-3-hydroxy-4-oxo-6,7,8,9-tetrahydro-7,10-ethanopyrimido[1,2-a]azepin-10(4H)-yl)-N,N-dimethylethanediamide], in that order: 400 nM and 1 nM.

In the case of `CN(C)C(=O)C(=O)NC12CCC(CC1)Cn1c2nc(-c2nnc(Cc3ccc(F)cc3)o2)c(O)c1=O` [Example 7, N′-(2-(5-(4-Fluorobenzyl)-1,3,4-oxadiazol-2-yl)-3-hydroxy-4-oxo-6,7,8,9-tetrahydro-7,10-ethanopyrimido[1,2-a]azepin-10(4H)-yl)-N,N-dimethylethanediamide], the Ki at HIV integrase came out at 222 nM. For the same compound, in test [1], the EC50 turned out to be 2 nM. As to `CN(C)C(=O)C(=O)NC12CCC(CC1)Cn1c2nc(-c2ncc(Cc3ccc(F)cc3)o2)c(O)c1=O` [Example 8, N′-(4-(5-(4-Fluorobenzyl)-1,3-oxazol-2-yl)-3-hydroxy-4-oxo-6,7,8,9-tetrahydro-7,10-ethanopyrimido[1,2-a]azepin-10(4H)-yl)-N,N-dimethylethanediamide], the Ki at HIV integrase stood at 115 nM. The EC50 in test [1] was found to be 0.4 nM.

Regarding `CN(C)C(=O)C(=O)NC12CCC(CC1)Cn1c2nc(-c2ncn(Cc3ccc(F)cc3)n2)c(O)c1=O` [Example 9, N′-[2-[1-[(4-Fluorophenyl)methyl]-1H-1,2,4-triazol-3-yl]-6,7,8,9-tetrahydro-3-hydroxy-4-oxo-7,10-ethanopyrimido[1,2-a]azepin-10(4H)-yl]-N,N-dimethylethanediamide], at HIV integrase, the Ki is 1070 nM. For `Cc1cc(Cc2cnc(-c3nc4n(c(=O)c3O)CC3CCC4(NC(=O)C(=O)N(C)C)CC3)[nH]2)ccc1F` [Example 10, N′-[2-[4-[(4-Fluoro-3-methylphenyl)methyl]-1H-imidazol-2-yl]-6,7,8,9-tetrahydro-3-hydroxy-4-oxo-7,10-ethanopyrimido[1,2-a]azepin-10(4H)-yl]-N,N-dimethyl-ethanediamide trifluoroacetate salt], the inhibitory constant (Ki) at HIV integrase is 9 nM. Further, in test [1], the EC50 was 6 nM. For `Cc1cc(Cc2cnc(-c3nc4n(c(=O)c3O)CC3CCC4(NC(=O)c4cccnc4)CC3)[nH]2)ccc1F` [Example 11, N-[2-[4-[(4-Fluoro-3-methylphenyl)methyl]-1H-imidazol-2-yl]-6,7,8,9-tetrahydro-3-hydroxy-4-oxo-7,10-ethanopyrimido[1,2-a]azepin-10(4H)-yl]-3-pyridinecarboxamide trifluoroacetate salt], the Ki on HIV integrase came out at 19 nM. In addition, the EC50 in test [1] was 24 nM.

As for `Cc1cc(Cc2cnc(-c3nc4n(c(=O)c3O)CC3CCC4(NC(=O)c4cccnn4)CC3)[nH]2)ccc1F` [Example 12, N-[2-[4-[(4-Fluoro-3-methylphenyl)methyl]-1H-imidazol-2-yl]-6,7,8,9-tetrahydro-3-hydroxy-4-oxo-7,10-ethanopyrimido[1,2-a]azepin-10(4H)-yl]-3-pyridazinecarboxamide trifluoroacetate salt], the Ki at HIV integrase was 13 nM. The EC50 in test [1] was 8 nM. For `CN(C)C(=O)C(=O)N(C)C12CCC(CC1)Cn1c2nc(-c2ncc(Cc3ccc(F)cc3)[nH]2)c(O)c1=O` [Example 13, N-[2-[4-[(4-Fluorophenyl)methyl]-1H-imidazol-2-yl]-6,7,8,9-tetrahydro-3-hydroxy-4-oxo-7,10-ethanopyrimido[1,2-a]azepin-10(4H)-yl]-N,N′,N′-trimethyl-ethanediamide trifluoroacetate salt], the inhibitory constant (Ki) on HIV integrase amounted to 13 nM. The EC50 in test [1] was determined as 2 nM.

For the compound `Cc1cc(Cc2c[nH]c(-c3nc4n(c(=O)c3O)CC3CCC4(NC(=O)C(C)(C)n4cncn4)CC3)n2)ccc1F` [Example 14, N-[2-[4-[(4-Fluoro-3-methylphenyl)methyl]-1H-imidazol-2-yl]-6,7,8,9-tetrahydro-3-hydroxy-4-oxo-7,10-ethanopyrimido[1,2-a]azepin-10(4H)-yl]-alpha,alpha-dimethyl-1H-1,2,4-triazole-1-acetamide trifluoroacetate salt], the Ki at HIV integrase was 41 nM. Further, the EC50 in test [1] was 7 nM. For `CC(=O)N(C)C1(C(=O)NC23CCC(CC2)Cn2c3nc(-c3ncc(Cc4ccc(F)c(C)c4)[nH]3)c(O)c2=O)CC1` [Example 15, 1-(Acetylmethylamino)-N-[2-[4-[(4-fluoro-3-methylphenyl)methyl]-1H-imidazol-2-yl]-6,7,8,9-tetrahydro-3-hydroxy-4-oxo-7,10-ethanopyrimido[1,2-a]azepin-10(4H)-yl]-cyclopropanecarboxamide trifluoroacetate salt], in that order: 57 nM and 53 nM.

For the compound `CN(C)C(=O)C(=O)NC12CCC(CC1)Cn1c2nc(-c2nnc(Cc3ccc(F)cc3)s2)c(O)c1=O` [Example 16, N′-[2-[5-[(4-Fluorophenyl)methyl]-1,3,4-thiadiazol-2-yl]-6,7,8,9-tetrahydro-3-hydroxy-4-oxo-7,10-ethanopyrimido[1,2-a]azepin-10(4H)-yl]-N,N-dimethylethanediamide], the Ki on HIV integrase was found to be 1470 nM. Besides, the EC50 in test [1] came to 21 nM. For `Cc1cc(Cc2c[nH]c(-c3nc4n(c(=O)c3O)CC3CCC4(N(C)C(=O)C(=O)N(C)C)CC3)n2)ccc1F` [Example 17, N-[2-[4-[(4-Fluoro-3-methylphenyl)methyl]-1H-imidazol-2-yl]-6,7,8,9-tetrahydro-3-hydroxy-4-oxo-7,10-ethanopyrimido[1,2-a]azepin-10(4H)-yl]-N,N′,N′-trimethyl-ethanediamide trifluoroacetate salt], in that order: 10 nM and 5 nM.

On to `Cc1cc(Cc2cnc(-c3nc4n(c(=O)c3O)CC3CCC4(NC(=O)c4ccn(C)n4)CC3)[nH]2)ccc1F` [Example 18, N-[2-[4-[(4-Fluoro-3-methylphenyl)methyl]-1H-imidazol-2-yl]-6,7,8,9-tetrahydro-3-hydroxy-4-oxo-7,10-ethanopyrimido[1,2-a]azepin-10(4H)-yl]-1-methyl-1H-pyrazole-3-carboxamide], for which the Ki on HIV integrase was found to be 16 nM. Further, in test [1], the EC50 came out at 5 nM.

The Ki is a measure of affinity in units of concentration, obtained from inhibition or displacement.
